{"source": "patent US20250064807A1", "about": "“Promoting Hair Growth and Treatment of Hair Loss or Excessive Hair Shedding” (Samson Clinical Pty Ltd, priority 2017, published 2025)", "key": {"[1]": {"details": "for minoxidil in serum samples at steady state: 0.45 mg sublingually daily for a minimum of 6 weeks", "procedure": "(§1) Hair counts were performed on dermatoscopic images taken at baseline and after 6 weeks. […] Steady state serum levels were measured after 8 weeks of daily dosing. 13 patients had hair counts performed."}, "[2]": {"test_system": "women aged 20-68 with Sinclair stages 2-5 FPHL", "assay": "Head to head study topical 5% minoxidil once daily vs oral minoxidil 1 mg daily, 24 weeks (data on file)", "assay_type": "in vivo, human", "details": "for additional hairs on scalp from increase in hair density: scalp area 630 cm^2; for mean increase in terminal hair count: 24 weeks"}, "[3]": {"assay": "Minoxidil serum levels after a single sublingual dose (Example 7)", "details": "for minoxidil in the serum after 2 hours: single sublingual dose 0.45 mg"}, "[4]": {"details": "cited from earlier work; for mean serum concentration after topical application: scalp, twice daily; for peak serum concentration: one hour post-dose"}, "women": {"test_system": "women", "assay": "Hair count after 12 weeks of daily sublingual minoxidil troche (Example 6)", "assay_type": "in vivo, human", "details": "individual patients 1-3, listed as sublingual minoxidil"}, "men with MPHL": {"test_system": "men with MPHL", "details": "cited from earlier work"}, "[5]": {"details": "for blood pressure after first dose / at time of peak concentration: single sublingual dose 0.45 mg; for adverse events / side effects: sublingual minoxidil 0.45 mg, b166: 30 patients, 2 to 12 months", "procedure": "as §1"}, "men and women with AGA": {"test_system": "men and women with AGA", "assay": "Hair regrowth by macrophotography hair counts and global photography (Example 7)", "assay_type": "in vivo, human", "experimental": "Hair counts were performed on dermatoscopic images taken at baseline and after 6 weeks. […] Steady state serum levels were measured after 8 weeks of daily dosing."}, "[6]": {"assay": "Assessment of sublingual minoxidil on patient blood pressure (Example 5)", "details": "2.5 mg sublingual troche, 5 individuals, monitored 6 hours post administration"}, "[7]": {"assay": "Stability and beyond use of minoxidil and compounded dosage forms", "assay_type": "physicochemical", "details": "110° C. for 30 minutes"}, "[8]": {"test_system": "patients with FPHL or MPHL", "assay": "Randomized double-blind study of 0.45 mg sublingual minoxidil, week 8 interim hair assessments (Example 8)", "assay_type": "in vivo, human", "experimental": "Participants receive study medication for 24 weeks followed by a follow-up visit 4 weeks later.\nThe aim is to enroll 40 participants.\nNumber of participants completed Week 8: 12 (2 females, 10 males). […] This timepoint represents a third of the planned treatment period for the study (24 weeks). Data from these 12 participants have been analysed at the 8 week mark. Analysis was performed blind as the study is still ongoing.\nThe minimum criteria for hair loss severity in female participants is a Grade 2 and maximum is Grade 5. ISA at Screening was Sinclair Scale 2 and 3 for each female participant. […] As the study is ongoing and medication blind still stands, the final outcome of change in hair density (at Week 24) cannot be concluded in this report. The minimum criteria for enrolment for male participants is Grade III-Vertex and maximum is VI.\nStandardized global photography are taken at Study Weeks 0 (prior to dispensing of medication) and 8. Subsequent Week 16, 24 and 28 visits will also include global photography. A vertex and frontal scalp photograph is taken from a fixed height with a dedicated SLR camera. Current collated global photographs for all 12 patients were assessed by a blinded assessor. Comparison photographs between Baseline and Week 8 was provided to the designated blinded assessor.\nInitial assessment of Dermatology Life Quality Index (DLQI) for males and Women's AGA Quality of Life Questionnaire (WAA-QOL): Responses by female participants was generally more negative corresponding to a higher score at both Baseline and Week 8 visits. The impact on Quality of Life was more pronounced in comparison to the male participants. […] A full score of 38 represented dissatisfaction with current hair growth. The mean score was 25 (SD: 2.19) at Week 0 and 24.7 (SD: 4.08) at Week 8. The median score from all 10 male participants was 24.5 and 25 respectively. Both female patients reported an average of Grade 3 with the Sinclair Scale (FIG. 1 above) at Baseline visit and subsequent Week 8 visit. This was consistent with the Investigator's grade of their hair loss severity."}, "[9]": {"details": "cited from earlier work"}, "[10]": {"details": "0.25 mg sublingual troche daily, 12 weeks"}, "[11]": {"details": "0.25 mg sublingual troche daily"}, "[12]": {"details": "30 patients, sublingual minoxidil for between 2 and 12 months"}, "[13]": {"details": "0.45 mg sublingually daily, minimum 6 weeks, 13 patients"}, "[14]": {"details": "0.45 mg sublingually once daily"}, "[15]": {"details": "Baseline vs Week 8, blinded assessor, blind not broken"}}, "note": "Several values for one entry are separate records, joined by “and”; a condition that tells them apart may be missing. Identical values can stand only once. Entries after “also recorded” stand apart in the source; their conditions may differ. Like-named read-outs stand apart in the source and are kept apart here."}
{"smiles": "Nc1cc(N2CCCCC2)nc(N)[n+]1[O-]", "note": "[minoxidil, 2,4-Diamino-6-piperidinopyrimidine 3-oxide]", "values": [{"measurement": "minoxidil in serum samples at steady state", "setting": "[1]", "value": "No minoxidil was detected"}, {"measurement": "minoxidil in serum samples at steady state", "setting": "[1]; listed as sublingual minoxidil", "value": "not detected"}, {"measurement": "accumulation with continuous dosing", "setting": "[1]; continuous sublingual dosing", "value": "does not accumulate"}, {"measurement": "additional hairs on scalp from increase in hair density", "setting": "[2]; 7 hair/cm^2 increase (topical group)", "value": 4600, "unit": "hairs"}, {"measurement": "additional hairs on scalp from increase in hair density", "setting": "[2]; 27 hair/cm^2 increase (oral group)", "value": "17,000 hairs"}, {"measurement": "mean increase in terminal hair count", "setting": "[2]; oral minoxidil 1 mg daily", "value": "27 /cm^2"}, {"measurement": "mean increase in terminal hair count", "setting": "[2]; topical 5% minoxidil once daily", "value": "7 /cm^2"}, {"measurement": "adverse events at Week 8 visit", "setting": "0.45 mg sublingual once daily, 12 participants, blind not broken", "value": "No significant adverse events"}, {"measurement": "blood pressure readings, day of randomization vs Week 8", "setting": "12 participants", "value": "not significant"}, {"measurement": "respiratory rate and tympanic temperature", "setting": "12 participants", "value": "within normal range"}, {"measurement": "safety blood profile", "setting": "Week 8, 12 participants", "value": "within the normal range"}, {"measurement": "minoxidil in the serum after 2 hours", "setting": "[3]", "value": "no detectable minoxidil; also recorded: undetectable"}, {"measurement": "minoxidil in the serum after 2 hours", "setting": "[3]; listed as sublingual minoxidil", "value": "no detectable minoxidil"}, {"measurement": "circulating minoxidil after 1 hour", "setting": "[3]; sublingual dosing", "value": "undetectable"}, {"measurement": "mean serum concentration after topical application", "setting": "[4]; 2% minoxidil (20 mg/ml)", "value": 0.7, "unit": "ng/mL"}, {"measurement": "mean serum concentration after topical application", "setting": "[4]; 5% minoxidil (50 mg/ml)", "value": 1.8, "unit": "ng/mL"}, {"measurement": "absorption through the gastrointestinal tract", "setting": "[4]; in vivo, po", "value": "> 90", "unit": "%"}, {"measurement": "peak serum concentration", "setting": "[4]; oral dose 2.5 mg", "value": 18.5, "unit": "ng/mL"}, {"measurement": "peak serum concentration", "setting": "[4]; oral dose 5 mg", "value": 41, "unit": "ng/mL"}, {"measurement": "highest serum level recorded", "setting": "[4]; topical application", "value": 18.2, "unit": "ng/mL"}, {"measurement": "terminal hair count at 12 weeks (figure legend)", "setting": "women; [10]", "value": "123 and 186 and 71"}, {"measurement": "vellus hair count at 12 weeks", "setting": "women; [10]", "value": "6 and 13"}, {"measurement": "total hair count at 12 weeks", "setting": "women; 0.25 mg sublingual troche daily, 12 weeks, scalp section", "value": "129 and 199 and 84"}, {"measurement": "increase in total hair count from baseline to 12 weeks", "setting": "women; [11]", "value": "21 hairs and 32 hairs and 23 hairs"}, {"measurement": "percent increase in total hair count from baseline to 12 weeks", "setting": "women; [11]", "value": "19.4% and 19.2% and 37.7%"}, {"measurement": "Hair Count at week 12", "setting": "women; Table 1, terminal hairs, 0.25 mg sublingual troche daily", "value": "71 and 123 and 186"}, {"measurement": "Percentage increase", "setting": "women; Table 1, week 12 vs baseline terminal hair count", "value": "42% and 23% and 23.2%"}, {"measurement": "men with MPHL with arrest of hair loss or mild to moderate hair regrowth", "setting": "men with MPHL; applied topically", "value": "approximately 60%"}, {"measurement": "average increase in hair count", "setting": "men with MPHL; topical, 5% concentration, 12 months", "value": 12.3, "unit": "%"}, {"measurement": "biochemical abnormality", "setting": "[5]; [12]", "value": "No biochemical abnormality was detected"}, {"measurement": "hypertrichosis, tachycardia, fluid retention or postural hypotension", "setting": "[5]; [12]", "value": "No patient developed hypertrichosis, tachycardia, fluid retention or postural hypotension"}, {"measurement": "mean blood pressure", "setting": "[5]; [12]", "value": "no reduction"}, {"measurement": "blood pressure after first dose / at time of peak concentration", "setting": "[5]", "value": "unaffected"}, {"measurement": "blood pressure after first dose / at time of peak concentration", "setting": "[5]; listed as sublingual minoxidil", "value": "no change"}, {"measurement": "adverse events / side effects", "setting": "[5]", "value": "No adverse events were noted"}, {"measurement": "adverse events / side effects", "setting": "[5]; listed as sublingual minoxidil", "value": "No side effects were reported"}, {"measurement": "change in hair counts on frontal and vertex areas, all patients", "setting": "men and women with AGA; 0.45 mg sublingually daily, 6 weeks, 13 patients", "value": "increased terminal hairs; also recorded: increase in hair counts"}, {"measurement": "hair density, clinic assessment", "setting": "men and women with AGA; 0.45 mg sublingually daily, minimum 6 weeks, 2 patients", "value": "moderate increase (+2)"}, {"measurement": "mean increase in frontal scalp terminal hairs", "setting": "men and women with AGA; [13]", "value": 69.13, "unit": "hairs/cm^2"}, {"measurement": "mean increase in vertex scalp terminal hairs", "setting": "men and women with AGA; [13]", "value": 97.38, "unit": "hairs/cm^2"}, {"measurement": "range of increase in frontal scalp terminal hairs", "setting": "men and women with AGA; [13]", "value": "4-133 hairs/cm^2"}, {"measurement": "range of increase in vertex scalp terminal hairs", "setting": "men and women with AGA; [13]", "value": "31-253 hairs/cm^2"}, {"measurement": "hair regrowth compared with topical or oral minoxidil", "setting": "men and women with AGA; [14]", "value": "greater and detected earlier"}, {"measurement": "increase from baseline in hair count on the vertex scalp", "setting": "men and women with AGA; [14]", "value": 52.5, "unit": "%"}, {"measurement": "increase from baseline in hair count over the frontal scalp", "setting": "men and women with AGA; [14]", "value": 36.5, "unit": "%"}, {"measurement": "hair regrowth compared with topical or oral minoxidil", "setting": "men and women with AGA; 0.45 mg sublingually once daily, listed as sublingual minoxidil", "value": "grows more hair"}, {"measurement": "midline hair density, blinded assessment of global photography", "setting": "men and women with AGA; 0.45 mg sublingually, 8 weeks, 5 of the patients", "value": "slight increase"}, {"measurement": "scalp global photographs at 6 weeks", "setting": "men and women with AGA; 0.45 mg sublingually, all patients", "value": "either mild or moderate improvement"}, {"measurement": "adverse symptoms, postural hypotension or change in blood pressure", "setting": "[6]", "value": "No adverse symptoms, postural hypotension or change in blood pressure was noted"}, {"measurement": "thermal stability", "setting": "[7]", "value": "stable"}, {"measurement": "Investigator scalp assessment, Sinclair Scale, change at Week 8", "setting": "[8]; 0.45 mg sublingual once daily, individual female participants, blind not broken, listed as sublingual minoxidil", "value": "slight increase from grade 3 to 2; also recorded: no change"}, {"measurement": "Men's Hair Growth Questionnaire median score at Week 8", "setting": "[8]; 10 male participants", "value": 25}, {"measurement": "Men's Hair Growth Questionnaire scores, Week 0 vs Week 8", "setting": "[8]; 10 male participants", "value": "No significant difference"}, {"measurement": "Men's Hair Growth Questionnaire mean score at Week 8", "setting": "[8]; 10 male participants, full score 38 = dissatisfaction", "value": "24.7 (SD: 4.08)"}, {"measurement": "participants (of 12) whose assessment suggests a slight to moderate increase in hair density", "setting": "[8]; [15]", "value": "Eight"}, {"measurement": "participants (of 12) whose global photography suggests a decrease in hair density", "setting": "[8]; [15]", "value": 2, "unit": "participants"}, {"measurement": "patient reported Sinclair Scale grade at Week 8 (average)", "setting": "[8]; both female patients, same at Baseline", "value": 3, "unit": "Grade"}, {"measurement": "effect on blood pressure in hypertensive patients", "setting": "[9]; oral, 5 to 100 mg daily", "value": "profound reduction in blood pressure"}, {"measurement": "effect on blood pressure of normotensive individuals", "setting": "[9]; oral, 5 to 100 mg daily", "value": "minimal effect"}, {"measurement": "effect on blood pressure or pulse rate", "setting": "[9]; topical", "value": "minimal effect"}, {"measurement": "serum concentration threshold for any hemodynamic response", "setting": "[9]; twelve hour steady state intravenous infusions (Ferry et al., 1996)", "value": 20, "unit": "ng/mL"}]}
